Experimental data as given in patent publication US11691980B2, “Liphagal analog and multi-targeted kinase inhibitor containing liphagal or analog thereof” (TOHOKU UNIVERSITY, priority 2017, dated 2023).

Experiments:
Type in all cases: biochemical
PDGFRα = molecular target: T1, PDGFRα (Homo sapiens, UniProt P16234); assay: mobility shift assay
T1 construct: purchased Carna Biosciences

FGFR3 = molecular target: T2, FGFR3 (Homo sapiens, UniProt P22607); assay: mobility shift assay
T2 construct: purchased Carna Biosciences
T2 sequence (P22607 23-806): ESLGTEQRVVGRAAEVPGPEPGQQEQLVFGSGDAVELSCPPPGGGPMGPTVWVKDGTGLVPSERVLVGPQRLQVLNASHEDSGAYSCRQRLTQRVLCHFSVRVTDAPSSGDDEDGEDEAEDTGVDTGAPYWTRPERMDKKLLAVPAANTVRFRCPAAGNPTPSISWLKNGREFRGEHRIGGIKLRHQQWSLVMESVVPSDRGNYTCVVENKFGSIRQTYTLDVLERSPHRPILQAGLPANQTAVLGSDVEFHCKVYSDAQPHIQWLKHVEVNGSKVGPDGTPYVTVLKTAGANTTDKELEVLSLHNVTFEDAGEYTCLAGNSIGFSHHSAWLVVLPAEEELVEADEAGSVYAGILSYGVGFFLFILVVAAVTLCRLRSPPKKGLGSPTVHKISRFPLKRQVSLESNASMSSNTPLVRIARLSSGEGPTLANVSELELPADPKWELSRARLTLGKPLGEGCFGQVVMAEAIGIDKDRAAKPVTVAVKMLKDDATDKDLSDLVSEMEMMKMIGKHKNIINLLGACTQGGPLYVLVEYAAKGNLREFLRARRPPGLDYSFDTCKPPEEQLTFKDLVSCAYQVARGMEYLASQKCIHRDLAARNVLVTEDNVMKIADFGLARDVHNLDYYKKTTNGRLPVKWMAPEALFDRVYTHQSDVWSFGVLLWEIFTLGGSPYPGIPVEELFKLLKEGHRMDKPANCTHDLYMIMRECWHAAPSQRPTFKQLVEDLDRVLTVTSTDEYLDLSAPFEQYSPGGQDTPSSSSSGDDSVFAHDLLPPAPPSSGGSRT

ABL = molecular target: T3, ABL (Homo sapiens, UniProt P00519); assay: mobility shift assay
T3 construct: purchased Carna Biosciences
T3 sequence (P00519 whole entry): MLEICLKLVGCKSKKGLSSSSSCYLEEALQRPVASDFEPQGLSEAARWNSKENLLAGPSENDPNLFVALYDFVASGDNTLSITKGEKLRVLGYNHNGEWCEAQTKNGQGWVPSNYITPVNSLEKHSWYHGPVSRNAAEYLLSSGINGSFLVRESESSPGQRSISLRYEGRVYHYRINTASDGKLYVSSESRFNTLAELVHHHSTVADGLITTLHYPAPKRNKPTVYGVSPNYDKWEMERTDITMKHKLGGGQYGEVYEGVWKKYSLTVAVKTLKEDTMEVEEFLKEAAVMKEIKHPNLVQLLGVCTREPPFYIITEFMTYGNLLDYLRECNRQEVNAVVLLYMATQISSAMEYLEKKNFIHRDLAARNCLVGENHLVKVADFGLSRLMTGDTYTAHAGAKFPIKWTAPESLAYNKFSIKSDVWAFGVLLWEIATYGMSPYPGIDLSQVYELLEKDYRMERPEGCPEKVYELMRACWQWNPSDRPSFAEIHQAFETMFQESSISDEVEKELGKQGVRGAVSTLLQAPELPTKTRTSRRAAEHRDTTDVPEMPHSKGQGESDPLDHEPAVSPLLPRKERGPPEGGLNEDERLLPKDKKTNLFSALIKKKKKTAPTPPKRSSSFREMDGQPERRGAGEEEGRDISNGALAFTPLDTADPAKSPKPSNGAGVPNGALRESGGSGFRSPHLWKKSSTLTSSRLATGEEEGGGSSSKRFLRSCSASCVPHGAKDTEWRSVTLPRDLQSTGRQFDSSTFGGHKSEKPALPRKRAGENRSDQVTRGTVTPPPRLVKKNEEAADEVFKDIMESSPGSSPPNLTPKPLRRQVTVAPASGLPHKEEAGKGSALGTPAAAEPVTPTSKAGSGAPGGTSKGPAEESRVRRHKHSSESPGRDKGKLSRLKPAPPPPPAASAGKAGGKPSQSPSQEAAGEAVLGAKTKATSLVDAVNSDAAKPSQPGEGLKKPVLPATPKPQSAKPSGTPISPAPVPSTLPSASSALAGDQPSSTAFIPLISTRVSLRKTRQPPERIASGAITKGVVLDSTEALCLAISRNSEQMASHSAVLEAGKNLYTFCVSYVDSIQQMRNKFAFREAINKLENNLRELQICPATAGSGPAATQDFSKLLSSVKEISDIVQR

PDGF Ru(DB42V) = molecular target: T4, PDGF Ru(DB42V) (Homo sapiens, UniProt P16234, D842V); assay: mobility shift assay
T4 construct: purchased Carna Biosciences

MARK1 = molecular target: T5, MARK1 (Homo sapiens, UniProt Q9P0L2); assay: mobility shift assay
T5 construct: purchased Carna Biosciences

PDK1 = molecular target: T6, PDK1 (Homo sapiens, UniProt O15530); assay: mobility shift assay
T6 construct: purchased Carna Biosciences

CaMK2α = molecular target: T7, CaMK2α (Homo sapiens, UniProt Q9UQM7); assay: mobility shift assay
T7 construct: purchased Carna Biosciences

IKKβ = molecular target: T8, IKKβ (Homo sapiens, UniProt O14920); assay: mobility shift assay
T8 construct: purchased Carna Biosciences

JNK1 = molecular target: T9, JNK1 (Homo sapiens, UniProt P45983); assay: mobility shift assay
T9 construct: purchased Carna Biosciences

PKCγ = molecular target: T10, PKCγ (Homo sapiens, UniProt P05129); assay: mobility shift assay
T10 construct: purchased Carna Biosciences

MARK2 = molecular target: T11, MARK2 (Homo sapiens, UniProt Q7KZI7); assay: mobility shift assay
T11 construct: purchased Carna Biosciences

PIM2 = PIM2 (Homo sapiens, UniProt Q9P1W9); assay: IC50 by mobility shift assay; conditions: Table 2, mobility shift assay; read-out: IC50 (μM), Kinase PIM2
Text: (§1) The compounds produced in Production Examples described above were each assessed for its inhibitory activity against CDK7, PIM2, and PI3K by mobility shift assay. In addition, a combination showing the highest inhibitory activity against each kinase is indicated by italics.

CDK7/CycHMAT1 = CDK7/CycHMAT1 (Homo sapiens, UniProt P50613); assay: IC50 by mobility shift assay; conditions: Table 2, mobility shift assay; read-out: IC50 (μM), Kinase CDK7/CycH/MAT1
Text: as §1

PKCθ = molecular target: T12, PKCθ (Homo sapiens, UniProt Q04759); assay: mobility shift assay
T12 construct: purchased Carna Biosciences
T12 sequence (Q04759 whole entry): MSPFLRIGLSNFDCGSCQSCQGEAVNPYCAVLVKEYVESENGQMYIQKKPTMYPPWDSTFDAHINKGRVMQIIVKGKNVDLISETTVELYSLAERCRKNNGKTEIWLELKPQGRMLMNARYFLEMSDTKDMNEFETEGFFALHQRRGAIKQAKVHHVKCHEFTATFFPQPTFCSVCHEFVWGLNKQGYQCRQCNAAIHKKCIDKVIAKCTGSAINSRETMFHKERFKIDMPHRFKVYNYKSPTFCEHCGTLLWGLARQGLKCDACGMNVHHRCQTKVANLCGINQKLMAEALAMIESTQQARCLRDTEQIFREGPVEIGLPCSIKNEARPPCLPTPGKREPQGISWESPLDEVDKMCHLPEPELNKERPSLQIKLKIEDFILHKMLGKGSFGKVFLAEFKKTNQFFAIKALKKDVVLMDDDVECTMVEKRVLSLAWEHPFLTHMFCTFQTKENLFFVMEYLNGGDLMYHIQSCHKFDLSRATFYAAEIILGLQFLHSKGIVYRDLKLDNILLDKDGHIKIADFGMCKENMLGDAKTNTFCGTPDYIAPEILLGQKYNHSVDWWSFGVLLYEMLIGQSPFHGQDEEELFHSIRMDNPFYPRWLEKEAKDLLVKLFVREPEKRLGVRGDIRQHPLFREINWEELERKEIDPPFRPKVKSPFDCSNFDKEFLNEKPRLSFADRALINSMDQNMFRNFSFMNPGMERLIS

AXL = molecular target: T13, AXL (Homo sapiens, UniProt P30530); assay: mobility shift assay
T13 construct: purchased Carna Biosciences

CDK4/CycD3 [1] = molecular target: T14, CDK4/CycD3 (Homo sapiens, UniProt P11802); assay: IC50 by mobility shift assay; conditions: Table 3, CDK4, mobility shift assay; read-out: IC50 (μM), Kinase CDK4/CycD3
T14 sequence (P11802 whole entry): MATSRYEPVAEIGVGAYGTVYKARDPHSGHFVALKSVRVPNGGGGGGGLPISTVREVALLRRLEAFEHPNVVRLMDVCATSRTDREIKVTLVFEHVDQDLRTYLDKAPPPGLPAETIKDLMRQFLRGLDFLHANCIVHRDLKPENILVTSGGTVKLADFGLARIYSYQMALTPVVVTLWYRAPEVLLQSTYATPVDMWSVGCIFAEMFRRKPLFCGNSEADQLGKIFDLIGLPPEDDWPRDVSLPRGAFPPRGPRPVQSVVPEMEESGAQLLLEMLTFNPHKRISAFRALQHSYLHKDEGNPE
T14 sequence (P30281 whole entry partner): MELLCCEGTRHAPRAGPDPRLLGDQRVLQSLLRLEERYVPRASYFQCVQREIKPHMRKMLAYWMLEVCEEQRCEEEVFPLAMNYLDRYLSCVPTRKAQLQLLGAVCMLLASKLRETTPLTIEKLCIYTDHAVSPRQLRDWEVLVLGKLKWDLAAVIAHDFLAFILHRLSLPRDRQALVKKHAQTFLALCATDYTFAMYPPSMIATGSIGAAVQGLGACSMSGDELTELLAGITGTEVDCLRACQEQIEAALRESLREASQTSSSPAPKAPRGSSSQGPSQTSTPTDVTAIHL
Text: Next, the compounds produced in Production Examples described above were each assessed for its inhibitory activity against CDK4 by mobility shift assay. In addition, a combination showing the highest inhibitory activity is indicated by italics.

PKACγ = molecular target: T15, PKACγ (Homo sapiens, UniProt P22612); assay: mobility shift assay
T15 construct: purchased Carna Biosciences

ALK(C1156Y) = molecular target: T16, ALK(C1156Y) (Homo sapiens, UniProt Q9UM73, C1156Y); assay: mobility shift assay
T16 construct: purchased Carna Biosciences

IGF1R = molecular target: T17, IGF1R (Homo sapiens, UniProt P08069); assay: mobility shift assay
T17 construct: purchased Carna Biosciences

EPHA7 = molecular target: T18, EPHA7 (Homo sapiens, UniProt Q15375); assay: mobility shift assay
T18 construct: purchased Carna Biosciences
T18 sequence (Q15375 28-998): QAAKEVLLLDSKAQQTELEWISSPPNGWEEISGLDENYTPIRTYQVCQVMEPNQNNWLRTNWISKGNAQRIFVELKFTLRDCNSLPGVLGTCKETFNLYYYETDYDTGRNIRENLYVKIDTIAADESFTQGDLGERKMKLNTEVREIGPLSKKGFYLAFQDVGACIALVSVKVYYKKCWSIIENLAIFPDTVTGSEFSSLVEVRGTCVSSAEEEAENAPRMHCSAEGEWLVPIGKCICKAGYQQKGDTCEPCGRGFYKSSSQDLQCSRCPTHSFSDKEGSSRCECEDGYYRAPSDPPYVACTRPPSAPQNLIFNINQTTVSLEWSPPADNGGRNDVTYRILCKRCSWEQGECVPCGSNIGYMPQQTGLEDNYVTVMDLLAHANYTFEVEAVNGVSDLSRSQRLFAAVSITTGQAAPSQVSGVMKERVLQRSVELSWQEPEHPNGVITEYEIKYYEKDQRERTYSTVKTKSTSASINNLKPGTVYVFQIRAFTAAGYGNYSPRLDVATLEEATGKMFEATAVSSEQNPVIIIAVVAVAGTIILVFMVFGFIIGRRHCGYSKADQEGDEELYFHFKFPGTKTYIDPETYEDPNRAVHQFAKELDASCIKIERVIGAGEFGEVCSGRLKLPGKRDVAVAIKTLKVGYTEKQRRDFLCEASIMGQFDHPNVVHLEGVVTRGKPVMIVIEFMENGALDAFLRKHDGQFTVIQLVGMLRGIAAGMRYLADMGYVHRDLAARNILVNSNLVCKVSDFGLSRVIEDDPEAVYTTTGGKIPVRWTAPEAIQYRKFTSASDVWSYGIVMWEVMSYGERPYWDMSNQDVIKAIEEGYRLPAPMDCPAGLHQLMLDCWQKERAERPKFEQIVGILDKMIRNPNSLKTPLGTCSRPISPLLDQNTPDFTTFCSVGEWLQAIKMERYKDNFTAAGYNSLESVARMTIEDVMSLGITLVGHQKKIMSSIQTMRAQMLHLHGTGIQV

TSSK2 = molecular target: T19, TSSK2 (Homo sapiens, UniProt Q96PF2); assay: mobility shift assay
T19 construct: purchased Carna Biosciences

PIK3α (PIK3CA/PIK3R1) = PIK3α (PIK3CA/PIK3R1) (Homo sapiens, UniProt P42336); assay: IC50 by mobility shift assay; conditions: Table 2, mobility shift assay; read-out: IC50 (μM), Kinase PIK3CA/PIK3RI
Protocol: The compounds obtained in Production Examples described above were each measured for its IC50 value for PIK3α (PIK3CA/PIK3R1) by mobility shift assay. The mobility shift assay is a method involving separating and quantifying a substrate and a phosphorylated substrate on the basis of mobility in a capillary. Each compound was mixed at various concentrations with an assay buffer (20 mM HEPES, 2 mM DTT, 25 μM sodium cholate, 75 mM NaCl, 20 μM cantharidine) together with 21 nM PI3K, 1,000 nM phosphatidyl inositol, 50 μM ATP, and 5 mM MgCl, and the mixture was subjected to a reaction at room temperature for 5 hours, followed by the mobility shift assay. The test was repeated twice. The enzymatic reaction was assessed on the basis of a product ratio (P/(P+S)) calculated from the height of a substrate peptide peak (S) and the height of a phosphorylated peptide peak (P). An inhibition rate was calculated from a signal obtained when each compound was added, with the average signal of a control containing all reaction components being defined as 0% inhibition and the average signal of a background (no enzyme added) being defined as 100% inhibition.
as §1

RSK4 = molecular target: T20, RSK4 (Homo sapiens, UniProt Q9UK32); assay: mobility shift assay
T20 construct: purchased Carna Biosciences

CDC7/ASK = molecular target: T21, CDC7/ASK (Homo sapiens, UniProt O00311); assay: mobility shift assay
T21 construct: purchased Carna Biosciences

SPHK1 = molecular target: T22, SPHK1 (Homo sapiens, UniProt Q9NYA1); assay: mobility shift assay
T22 construct: purchased Carna Biosciences

PKACβ = molecular target: T23, PKACβ (Homo sapiens, UniProt P22694); assay: mobility shift assay
T23 construct: purchased Carna Biosciences

CDK4/CycD3 [2] = molecular target: T14, CDK4/CycD3; assay: mobility shift assay
SRPK1 = molecular target: T24, SRPK1 (Homo sapiens, UniProt Q96SB4); assay: IMAP Assay
T24 construct: purchased Carna Biosciences
T24 sequence (Q96SB4 whole entry): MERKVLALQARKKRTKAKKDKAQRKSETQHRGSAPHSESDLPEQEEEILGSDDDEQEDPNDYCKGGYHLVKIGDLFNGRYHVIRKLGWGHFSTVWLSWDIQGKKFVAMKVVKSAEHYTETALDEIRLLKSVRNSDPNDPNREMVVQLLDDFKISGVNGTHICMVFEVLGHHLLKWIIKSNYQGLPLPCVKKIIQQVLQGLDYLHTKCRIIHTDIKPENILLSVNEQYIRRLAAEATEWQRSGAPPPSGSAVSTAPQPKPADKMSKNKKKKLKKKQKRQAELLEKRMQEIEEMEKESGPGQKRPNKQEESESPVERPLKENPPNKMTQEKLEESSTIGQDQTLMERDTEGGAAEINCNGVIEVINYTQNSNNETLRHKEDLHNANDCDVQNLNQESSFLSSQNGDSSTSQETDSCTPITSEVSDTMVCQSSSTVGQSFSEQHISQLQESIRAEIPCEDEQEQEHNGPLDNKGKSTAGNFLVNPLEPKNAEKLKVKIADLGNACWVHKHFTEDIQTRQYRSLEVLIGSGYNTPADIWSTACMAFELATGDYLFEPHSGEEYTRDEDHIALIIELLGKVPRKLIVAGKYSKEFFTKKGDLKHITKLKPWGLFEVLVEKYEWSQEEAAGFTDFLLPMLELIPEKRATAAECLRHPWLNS

FYN(isoform b) = molecular target: T25, FYN(isoform b) (Homo sapiens, UniProt P06241); assay: mobility shift assay
T25 construct: purchased Carna Biosciences

IRR = molecular target: T26, IRR (Homo sapiens, UniProt P14616); assay: mobility shift assay
T26 construct: purchased Carna Biosciences

PLK3 = molecular target: T27, PLK3 (Homo sapiens, UniProt Q9H4B4); assay: mobility shift assay
T27 construct: purchased Carna Biosciences

**Q.** Which inhibition at 10 µM (PDGFRα) does the source give for C[C@@H]1CC[C@H]2C(C)(C)CCC[C@]2(C)c2c1oc1c(C=O)c(O)c(O)cc21 [LG-1, liphagal] here?
**A.** 8.2%

**Q.** And the inhibition at 10 µM (FGFR3)?
**A.** -4.4%

**Q.** What about the inhibition at 10 µM (ABL) of the same compound?
**A.** 0.4%

**Q.** And the inhibition at 10 µM (PDGF Ru(DB42V))?
**A.** 1.5%

**Q.** And the inhibition at 10 µM (MARK1)?
**A.** -3.5%

**Q.** And the inhibition at 10 µM (PDK1)?
**A.** -97.8%

**Q.** And the inhibition at 10 µM (CaMK2α)?
**A.** -0.5%

**Q.** What about the inhibition at 10 µM (IKKβ) of the same compound?
**A.** 2.4%

**Q.** And the inhibition at 10 µM (JNK1)?
**A.** -10.8%

**Q.** What about the inhibition at 10 µM (PKCγ) of the same compound?
**A.** -1.9%

**Q.** And the inhibition at 10 µM (MARK2)?
**A.** 2.7%

**Q.** And the IC50 (PIM2)?
**A.** 5.31 µM

**Q.** And the IC50 (CDK7/CycHMAT1)?
**A.** 1.27 µM

**Q.** And the inhibition at 10 µM (PKCθ)?
**A.** -15%

**Q.** What about the inhibition at 10 µM (AXL) of the same compound?
**A.** -4.2%

**Q.** And the IC50 (CDK4/CycD3 [1])?
**A.** 19.9 µM

**Q.** And the inhibition at 10 µM (PKACγ)?
**A.** 18.7%

**Q.** And the inhibition at 10 µM (ALK(C1156Y))?
**A.** 0.2%

**Q.** And the inhibition at 10 µM (IGF1R)?
**A.** 8.7%

**Q.** What about the inhibition at 10 µM (EPHA7) of the same compound?
**A.** 8.7%

**Q.** And the inhibition at 10 µM (TSSK2)?
**A.** 21%

**Q.** And the IC50 (PIK3α (PIK3CA/PIK3R1))?
**A.** 4.12 µM

**Q.** What about the inhibition at 10 µM (RSK4) of the same compound?
**A.** 7.4%

**Q.** And the inhibition at 10 µM (CDC7/ASK)?
**A.** 26.2%

**Q.** And the inhibition at 10 µM (SPHK1)?
**A.** 59.8%

**Q.** And the inhibition at 10 µM (PKACβ)?
**A.** 13.9%

**Q.** What about the inhibition at 10 µM (CDK4/CycD3 [2]; CDK4/CycD3) of the same compound?
**A.** 63.4%

**Q.** And the “inhibitory activity against CDK4” value (CDK4/CycD3 [2]; in words, 10 μM)?
**A.** Potent inhibitory activity

**Q.** And the inhibition at 10 µM (SRPK1)?
**A.** 28.2%

**Q.** What about the inhibition at 10 µM (FYN(isoform b)) of the same compound?
**A.** 3.1%

**Q.** What about the inhibition at 10 µM (IRR) of the same compound?
**A.** 23.1%

**Q.** What about the inhibition at 10 µM (PLK3) of the same compound?
**A.** 31.1%
